Reference: PMC4944145, “New paradigms for understanding and step changes in treating active and chronic, persistent apicomplexan infections” (Scientific Reports, 2016)
Converted amounts (≈) assume the structure as drawn. “Also recorded” adds a separate entry of the source. Where two headings read alike, the source gives them in different places.

Columns and labels:
[1] = tested on: P. falciparum Dd2 parasite lines; test: P. falciparum whole-cell SYBR Green EC50, Dd2 and cytochrome b mutant / scDHODH lines; type: cell-based; details: Plasmodium falciparum
Experimental: We used the following parasite line from the MR4 repository of the American Type Culture Collection (ATCC): Dd2 (MRA-156). Mutant Dd2 parasites harboring a G33A or G33V substitution in cytochrome b were as reported^S77. Dd2 parasites with a G131S mutation in cytochrome b and transgenic lines expressing a chromosomally integrated copy of the S. cerevisiae DHODH were utilized as previously described^S78. Parasites were cultured by standard methods in RPMI media supplemented with 5% human O^+ serum and 0.25% AlbuMAX® II (Life Technologies 11021–045)^S79.
Drug susceptibility was measured using the SYBR Green method^S75. Twelve point curves based on 2-fold dilutions of the test compound were carried out in triplicate each day and replicated on at least three different days. EC50 values were calculated using a nonlinear regression curve fit in Prism 6.0 for Mac (GraphPad Software, Inc.).

[2] = tested on: T. gondii cysts; details: cited from earlier work
[3] = tested on: P. falciparum Dd2 parasites; test: Isobologram, modified fixed ratio drug combinations; type: cell-based, Plasmodium falciparum; details: for interaction in combination with MJM170: Dd2 parasites, synergy combined FIC < 1.0, additivity FIC = 1.0, antagonism FIC > 1.0; for FIC ATV: MJM170 + ATV; for FIC CYG: MJM170 + CYG
Experimental: Isobologram experiments were performed in similar fashion utilizing the modified fixed ratio methodology^S76. […] EC50 values were calculated as above, and FICs were calculated for each drug combination as described^S76. Synergy was defined as an FIC < 1.0, additivity as FIC = 1.0, and antagonism as FIC > 1.0.

[4] = tested on: T. gondii bradyzoites (EGS strain); test: EGS strain bradyzoite (cyst) assay in HFF; type: cell-based, Toxoplasma gondii
Experimental: (§1) Vivo-PMO (Vivo porter linked to morpholinos) to knock down cytochrome b and an off-target PPMO (Vivo porter) were utilized at concentrations of 5 and 10 μM as previously described with both cultures of RH-YFP tachyzoites and EGS^S14. Morpholino sequence for cytochrome b/c knockdown is 5′ […] 3′, and for unrelated sequence, off target, is 5′ […]-[…] 3′.
HFF cells were grown in IMDM (1x, [+] glutamine, [+] 25 mM HEPES, [+] Phenol red, 10% FBS, [Gibco, Denmark]) on removable, sterile glass disks in the bottom of a clear, flat-bottomed 24-well plate. Cultures were infected with 3 × 10^4 parasites (EGS strain) per well, in 0.5 mL media and plate was returned to incubator at 37 °C overnight. The following day, the media was removed and clear IMDM and compounds were added to making various concentrations of the drug, to a total volume of 0.5 mL. Two wells were filled with media only, as a control. Plates were returned to the 37 °C incubator for 72 hours.
Efficacy was determined following fixation. Staining was used to determine the numbers of cysts in cultures without and with treatment with the test compounds. Cells were fixed using 4% paraformaldehyde and stained with Fluorescein-labeled Dolichos Biflorus Agglutinin, DAPI, and anti-BAG1, and anti-SAG1. Disks were removed and mounted onto glass slides and visualized using microscopy (Nikon Tl7). Slides were also scanned using a CRi Pannoramic Scan Whole Slide Scanner and viewed using Pannoramic Viewer Software.

[5] = HFF toxicity assay (WST-1); type: cell-based; details: human, HFF cells (confluent monolayer)
Experimental: Toxicity assays were conducted using WST-1 cell proliferation reagent (Roche) as described^S12–15;S18,19. HFF were grown on a flat, clear-bottomed, black 96-well plate. Confluent HFF were treated with inhibitory compounds at concentrations equal to those being tested in challenge assays. Compounds were diluted in IMDM-C, and 20 μl were added to each designated well, with triplicates for each condition. A gradient of 2 fold-decreasing concentrations of DMSO in clear IMDM-C was used as a control. The plate was incubated for 72 hours at 37 °C. 10 μl of WST-1 reagent (Roche) were added to each well and the cells were incubated for 30 to 60 minutes. Absorbance was read using a fluorometer at 420 nm. A higher degree of color change (and absorbance) indicated mitochondrial activity and cell viability.

[6] = Aqueous kinetic solubility PBS pH 7.4
[7] = FaSSIF solubility pH 6.5
[8] = tested on: P. falciparum; test: P. falciparum in vitro assay (D6, TM91C235, W2, C2B strains); type: cell-based; details: Plasmodium falciparum
Experimental: D6 is a drug sensitive strain from Sierra Leone, C235 is a multi-drug resistant strain from Thailand, W2 is a chloroquine resistant strain from Thailand, and C2B has resistance to a variety of drugs including atovaquone. These assays were performed as described^S74.

[9] = tested on: S. cerevisiae wild type parental AD1-9 strain; test: S. cerevisiae growth inhibition (disk), wild type; type: cell-based, Saccharomyces cerevisiae; details: glycerol medium, 1mM, 100, 5 and 1 μM
Experimental: Three S. cerevisiae strains were used: M221Q and M221F cytochrome b mutants and wild type. They share the same nuclear genetic background deriving from AD1–9 (kindly given by M.Ghislain, UCL, Belgium). AD1–9 harbors multiple deletions in the ABC transporter genes that render the strain more sensitive to drugs than standard yeast strains^S65.
Protocol from^S68: Yeast strains were grown over 48 hours at 33 °C in liquid YPG medium [1% yeast extract, 2%(wt/vol) peptone, and 3%(vol/vol) (glycerol). Cultures were diluted to an OD600 of 0.05 and grown for 2 hrs. Cultures were then combined with YPG containing 6% melted agar for a total volume of 15–20 mL and poured onto OmniTray single-well rectangular plates that measured 86 mm by 128 mm (ThermoScientific) . Filter paper disks (7 mm diameter, […]) were placed onto the cooled agar plates. […] A single disk with DMSO on each plate was used as a control. Plates were incubated at 33 °C. Images were obtained after 4 days using GelDoc XR Imaging System (BioRad) and Quantity One software. Drug effect was assessed by the presence and size of a zone of inhibition around the disks.

[10] = tested on: yeast with a mutation in the Qi site; details: cited from earlier work
[11] = Human microsomal stability
[12] = Mouse microsomal stability
[13] = tested on: T. gondii tachyzoites (RH-YFP strain); test: T. gondii tachyzoite assay (RH-YFP in HFF, fluorescence); type: cell-based; details: Toxoplasma gondii
Experimental: as §1
Human foreskin fibroblasts (HFF) were cultured on a flat, clear-bottomed, black 96-well plate to 90% to 100% confluence. IMDM (1x, [+] glutamine, [+] 25 mM HEPES, [+] Phenol red, 10% FBS [gibco, Denmark]) was removed from each well and replaced with IMDM-C(1x, [+] glutamine, [+] 25 mM HEPES, [−] Phenol red, 10% FBS)[Gibco, Denmark]). Type I RH parasites expressing Yellow Fluorescent Protein (RH-YFP) were lysed from host cells by double passage through a 27-gauge needle. Parasites were counted and diluted to 32,000/mL in IMDM-C. Fibroblast cultures were infected with 3200 tachyzoites of the Type I RH-YFP strain and returned to incubator at 37 °C for 1–2 hours to allow for infection ^S12–15;S18,19;S25. […] The plates were read using a fluorimeter (Synergy H4 Hybrid Reader, BioTek) To ascertain the amount of yellow fluorescent protein, in relative fluorescence units (RFU), as a measure of parasite burden after treatment. […] Data was collected using Gen5 software and analyzed with Excel.

Which results are given for C[C@H]1[C@H](OC(=O)CCC(=O)O)O[C@@H]2O[C@@]3(C)CC[C@H]4[C@H](C)CC[C@@H]1[C@@]24OO3 [Artesunate]?
EC50 ([1]; DD2, Dd2): 2.95 ± 0.94 nM; EC50 ([1]; DD2, Dd2-attB): 4.4 ± 2.3 nM; EC50 ([1]; DD2, Dd2-scDHODH): 3.97 ± 2.3 nM; EC50 ([1]; DD2, Dd2: G33A): 2.53 ± 0.69 nM; EC50 ([1]; DD2, Dd2: G33V): 2.08 ± 1.4 nM; EC50 ([1]; DD2, Dd2: G131S): 3.38 ± 0.48 nM

With O=C1C(O)=C([C@H]2CC[C@H](c3ccc(Cl)cc3)CC2)C(=O)c2ccccc21 [Atovaquone, atovaquone] as the compound, how does the “effect on cyst burden in mice” value [2] read?
The value was “partially, and transiently, limits cyst burden in mice”.

What about the EC50 ([1]; DD2, Dd2) of the same compound?
The EC50 was 0.461 ± 0.14 nM.

What about the EC50 ([1]; DD2, Dd2-attB) of the same compound?
Its EC50 is 1.11 ± 0.27 nM.

And the EC50 ([1]; DD2, Dd2-scDHODH)?
The EC50 was greater than 50 nM.

And the EC50 ([1]; DD2, Dd2: G33A)?
Its EC50 is 0.365 ± 0.053 nM.

What about the EC50 ([1]; DD2, Dd2: G33V) of the same compound?
Its EC50 is 3.85 ± 7.1 nM.

And the EC50 ([1]; DD2, Dd2: G131S)?
The EC50 was 0.479 ± 0.17 nM.

What about the “interaction in combination with MJM170” value [3] of the same compound?
The value was “Slight synergy; also recorded: modest synergy”.

What about the “interaction in combination with MJM170” value ([3]; listed as atovoquone) of the same compound?
Its value is “modestly synergistic”.

What about the “FIC ATV” value ([3]; ratio 2:8) of the same compound?
The value was 0.82 ± 0.05.

And the “FIC ATV” value ([3]; ratio 4:6)?
Its value is 0.72 ± 0.1.

What about the “FIC ATV” value ([3]; ratio 6:4) of the same compound?
The value was 0.52 ± 0.1.

And the “FIC ATV” value ([3]; ratio 8:2)?
Its value is 0.35 ± 0.06.

What does the source list for Cc1[nH]c2ccccc2c(=O)c1-c1ccc(Oc2ccc(OC(F)(F)F)cc2)cc1 [ELQ 271]?
effect on EGS bradyzoites in cysts in vitro [4]: inhibited EGS in vitro; effect on EGS cysts in vitro ([4]; 10 μM): reduce the EGS cysts in vitro; IC50 ([4]; Toxoplasma gondii, EGS strain cysts in HFF): 1000 nM; effect on brain cyst numbers in mice ([2]; mouse model, listed as ELQ271): partially reduce cyst numbers in mice; effect on brain cyst numbers in mice ([2]; mouse model; listed as ELQ) 271): reduce, but not eliminate, brain cyst numbers in mice; CC50 at 72 h [5]: 20000 nM; solubility kinetic [6]: 0.15 µM (≈ 0.0617 µg/mL); solubility [7]: 3.4 µM (≈ 1.4 µg/mL); IC50 ([8]; C2B strain, multi-drug resistant, pronounced resistance to atovaquone): 130 nM; IC50 ([8]; D6 strain (Sierra Leone), drug sensitive): 30 nM; IC50 ([8]; TM91C235 strain (Thailand), multi-drug resistant): 90 nM; IC50 ([8]; W2 strain (Thailand), chloroquine resistant): 100 nM; growth inhibition of wild type yeast [9]: effective; activity against yeast with a mutation in the Qi site [10]: ineffective; half-life ([11]; human, human microsomes): 2.87 h; human microsomal stability ([11]; rounded): 172 min; mouse microsomal stability [12]: > 200 min; half-life ([12]; mouse, mouse microsomes): > 3.33 h; IC50 [13]: 30 nM

Which results are given for CC1(C)N=C(N)N=C(N)N1c1ccc(Cl)cc1 [cycloguanil]?
interaction in combination with MJM170 [3]: additive effect; FIC CYG ([3]; ratio 2:8): 0.036 ± 0.01; FIC CYG ([3]; ratio 4:6): 0.089 ± 0.03; FIC CYG ([3]; ratio 6:4): 0.2 ± 0.05; FIC CYG ([3]; ratio 8:2): 0.41 ± 0.003
